Some test systems named below: CAKI-1; HT-29; OVCAR-4; OVCAR-3; RPMI-8226; NCI-H460; NCI-H226; COLO 205; RXF 393; PC-3; HCT-116; SW-620; LOX IMVI; HL-60; UO-31; DU-145; SF-268; UACC-257; 786-0; HCT-15.
Common to all, as to assay: NCI tumour cell line growth inhibition, 48 h

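Compound exposure: 48 hours, 5 concentrations, 96-well plates. GI50 marks 50% less growth.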 Calls of active or inactive are those of the source. Rule as the data show it: active = GI50 up to about 1.1 µM and inactive = higher.

As for `CC(C)/C=C1\CCC(CN(C)C)C1=O` (stereo not given), the GI50 with CAKI-1 was 1.32 µM (inactive); in the assay on HT-29 it was 2.12 µM (inactive); in the assay on OVCAR-4, 7.35 µM (inactive); with OVCAR-3, 2.82 µM (inactive); in the assay on RPMI-8226, 0.13 µM (active); in the assay with NCI-H460 it was 18.9 µM (inactive). Moreover, the GI50 in the assay with NCI-H226 is 26.9 µM (inactive); in the assay with COLO 205, 0.586 µM (active); in the assay on RXF 393, 0.656 µM (active); in the assay with PC-3 it was 4.66 µM (inactive); with HCT-116, 0.871 µM (active); with SW-620, 0.656 µM (active). Moreover, the GI50 in the assay on LOX IMVI was 4.99 µM (inactive); in the assay with HL-60, 1.09 µM (active); with UO-31, 8.79 µM (inactive); in the assay with DU-145, 1.81 µM (inactive); with SF-268 it was 8.85 µM (inactive); with UACC-257 it was 4.63 µM (inactive). For the same compound, the GI50 in the assay with 786-0 is 0.632 µM (active); in the assay with HCT-15, 2.13 µM.
In the case of `CCOc1ccc(Nc2nc(N)nc(N)c2N=O)cc1`, the GI50 was 10.9 µM (inactive) with CAKI-1; 30.4 µM (inactive) with HT-29; 69.3 µM (inactive) with OVCAR-4; 24.6 µM (inactive) with OVCAR-3; 47.4 µM (inactive) in the assay with RPMI-8226; 32.9 µM (inactive) with NCI-H460. Further, the GI50 in the assay with NCI-H226 was 39.6 µM (inactive); in the assay with COLO 205, > 100 µM (inactive); in the assay with RXF 393, 43.9 µM (inactive); with PC-3 it was 28.4 µM (inactive); with HCT-116, > 100 µM (inactive); with SW-620 it was 91.2 µM (inactive). For the same compound, the GI50 is 32.1 µM (inactive) in the assay on LOX IMVI; > 100 µM (inactive) in the assay with HL-60; 29.9 µM (inactive) in the assay with UO-31; 38 µM (inactive) in the assay on DU-145; 89.7 µM (inactive) in the assay with SF-268; 54 µM (inactive) with UACC-257. Further, the results for the GI50 in the assay on 786-0 and in the assay on HCT-15 were > 100 µM (inactive) and 37.7 µM, respectively.
`CN1CCN(CCCCN2c3ccccc3Sc3ccc(C(=O)c4ccccc4)cc32)CC1`: the GI50 with CAKI-1 was 1.44 µM (inactive); in the assay with HT-29 it was 1.29 µM (inactive); in the assay on OVCAR-4 it was 2.08 µM (inactive); with OVCAR-3 it was 1.66 µM (inactive); with RPMI-8226, 1.79 µM (inactive); in the assay with NCI-H460 it was 1.54 µM (inactive). Further, the GI50 is 1.8 µM (inactive) in the assay with NCI-H226; 1.75 µM (inactive) in the assay with COLO 205; 0.923 µM (active) in the assay on RXF 393; 1.5 µM (inactive) with PC-3; 1.82 µM (inactive) in the assay with HCT-116; 1.73 µM (inactive) in the assay on SW-620. The GI50 in the assay on LOX IMVI was 1.46 µM (inactive); with HL-60, 1.57 µM (inactive); in the assay with UO-31 it was 2.65 µM (inactive); in the assay with DU-145 it was 2.29 µM (inactive); in the assay with SF-268 it was 2.23 µM (inactive); in the assay with UACC-257, 1.75 µM (inactive). In addition, the GI50 with 786-0 was 1.58 µM (inactive); with HCT-15, 1.67 µM.
Regarding `O=C(O)CCC(NC(=O)c1ccc(Oc2nc3ccccc3nc2C(=O)O)cc1)C(=O)O` (stereo not given), the GI50 with CAKI-1, with HT-29, in the assay on OVCAR-4, with OVCAR-3, with RPMI-8226 and in the assay with NCI-H460 was > 100 µM (inactive) throughout. Besides, the GI50 in the assay with NCI-H226, with COLO 205, in the assay on RXF 393, in the assay on PC-3, in the assay on HCT-116 and in the assay on SW-620 was > 100 µM (inactive) each time. Besides, the GI50 in the assay with LOX IMVI, with HL-60, in the assay on UO-31, in the assay with DU-145, in the assay with SF-268 and in the assay on UACC-257 was > 100 µM (inactive) each time. Further, the GI50 is > 100 µM (inactive) in the assay with 786-0 and more than 100 µM in the assay with HCT-15.

The values are drawn from ChEMBL document CHEMBL1201862, “PubChem BioAssay data set” (2004).
